Source: ChEMBL document CHEMBL1154702, “Enhancement of the antimalarial activity of ciprofloxacin using a double prodrug/bioorganometallic approach” (J Med Chem, 2009)

Tests used:
[1] = tested on: Plasmodium falciparum; experiment: Antimalarial activity against Plasmodium falciparum 3D7; format: functional, organism-based
[2] = tested on: Plasmodium falciparum; experiment: Antimalarial activity against Plasmodium falciparum NF54; format: functional, organism-based
[3] = tested on: Plasmodium falciparum; experiment: Antimalarial activity against chloroquine-sensitive Plasmodium falciparum 3D7 infected in erythrocytes after 48 hrs by [3H]hypoxanthine incorporation assay; format: functional, organism-based
[4] = tested on: Plasmodium falciparum; experiment: Antimalarial activity against chloroquine-resistant Plasmodium falciparum W2 infected in erythrocytes after 48 hrs by [3H]hypoxanthine incorporation assay; format: functional, organism-based
[5] = tested on: Plasmodium falciparum; experiment: Antimalarial activity against chloroquine-sensitive Plasmodium falciparum 3D7 infected in erythrocytes after 96 hrs by [3H]hypoxanthine incorporation assay; format: functional, organism-based
[6] = tested on: Plasmodium falciparum; experiment: Antimalarial activity against chloroquine-resistant Plasmodium falciparum W2 infected in erythrocytes after 96 hrs by [3H]hypoxanthine incorporation assay; format: functional, organism-based
[7] = tested on: Plasmodium falciparum; experiment: Antimalarial activity against chloroquine-sensitive Plasmodium falciparum PA infected in erythrocytes after 48 hrs by [3H]hypoxanthine incorporation assay; format: functional, organism-based
[8] = tested on: Plasmodium falciparum; experiment: Antimalarial activity against […] Plasmodium falciparum IMT K2 infected in erythrocytes after 48 hrs by [3H]hypoxanthine incorporation assay; format: functional, organism-based
[9] = Cytotoxicity against concanavalin-stimulated BALB/c mouse splenocytes after 72 hrs by resazurin dye reduction method; format: cell-based; conditions: Splenocyte
[10] = Therapeutic index, ratio of IC50 for concanavalin-stimulated BALB/c mice (Mus musculus) splenocytes to IC50 for Plasmodium falciparum 3D7; conditions: read-out: Ratio IC50
[11] = Therapeutic index, ratio of IC50 for concanavalin-stimulated BALB/c mice (Mus musculus) splenocytes to IC50 for Plasmodium falciparum W2 after 48 hrs; conditions: read-out: Ratio IC50
[12] = tested on: Plasmodium falciparum; experiment: Antimalarial activity against chloroquine-sensitive Plasmodium falciparum IMTVo1 infected in erythrocytes after 48 hrs by [3H]hypoxanthine incorporation assay; format: functional, organism-based
[13] = tested on: Plasmodium falciparum; experiment: Antimalarial activity against chloroquine-sensitive Plasmodium falciparum IMTL1 infected in erythrocytes after 48 hrs by [3H]hypoxanthine incorporation assay; format: functional, organism-based
[14] = tested on: Plasmodium falciparum; experiment: Antimalarial activity against chloroquine-sensitive Plasmodium falciparum FCR3 infected in erythrocytes after 48 hrs by [3H]hypoxanthine incorporation assay; format: functional, cell-based; conditions: FCR-3/Gambia
[15] = tested on: Plasmodium falciparum; experiment: Antimalarial activity against chloroquine-sensitive Plasmodium falciparum FCM29 infected in erythrocytes after 48 hrs by [3H]hypoxanthine incorporation assay; format: functional, organism-based
[16] = tested on: Plasmodium falciparum; experiment: Antimalarial activity against chloroquine-sensitive Plasmodium falciparum IMT10500 infected in erythrocytes after 48 hrs by [3H]hypoxanthine incorporation assay; format: functional, organism-based

COc1c(N2CCNC(C)C2)c(F)cc2c(=O)c(C(=O)O)cn(C3CC3)c12 (stereo unspecified) [GATIFLOXACIN]
IC50 [1]: ≥ 10 µM | IC50 [2]: ≥ 10 µM

C[C@H]1[C@H](OC(=O)CCC(=O)O)O[C@@H]2O[C@@]3(C)CC[C@H]4[C@H](C)CC[C@@H]1[C@@]24OO3 [ARTESUNATE]
IC50 [3]: 1.7 µM | IC50 [4]: 2.4 µM | IC50 [5]: 2 µM | IC50 [6]: 2.1 µM | IC50 [7]: 0.002 µM | IC50 [8]: 0.0018 µM

Cc1c(F)c(N2CCNC(C)C2)cc2c1c(=O)c(C(=O)O)cn2C1CC1 (stereo unspecified) [GREPAFLOXACIN]
IC50 [1]: ≥ 10 µM | IC50 [2]: ≥ 10 µM

CCOC(=O)c1cn(C2CC2)c2cc(N3CCNCC3)c(F)cc2c1=O [CIPROFLOXACIN ETHYL ESTER]
IC50 [1]: ≥ 10 µM | IC50 [2]: ≥ 10 µM | IC50 [3]: 3.1 µM | IC50 [4]: 3.9 µM | IC50 [5]: 1.6 µM | IC50 [6]: 3.1 µM | IC50 [9]: > 40 µM | selectivity ratio [10]: > 12.9 | selectivity ratio at 48 h [11]: > 10.2

C=C[C@H]1CN2CC[C@H]1C[C@H]2[C@H](O)c1ccnc2ccc(OC)cc12 [QUININE]
IC50 [3]: 186 µM | IC50 [4]: 520 µM | IC50 [6]: 456 µM | IC50 ([12]; read-out: IC50): 0.428 µM | IC50 [13]: 0.543 µM | IC50 [7]: 0.571 µM | IC50 ([14]; read-out: IC50): 0.65 µM | IC50 [15]: 0.0058 µM | IC50 [8]: 0.0067 µM

C[C@H]1c2cccc(O)c2C(=O)C2=C(O)[C@]3(O)C(=O)C(C(N)=O)=C(O)[C@@H](N(C)C)[C@@H]3[C@@H](O)[C@@H]21 [DOXYCYCLINE]
IC50 [3]: 12 µM | IC50 [4]: 10.7 µM | IC50 [5]: 1.7 µM | IC50 [6]: 1.2 µM | IC50 ([12]; read-out: IC50): 9.1 µM | IC50 ([16]; read-out: IC50): 13.3 µM | IC50 [13]: 8.4 µM | IC50 [7]: 12.9 µM | IC50 ([14]; read-out: IC50): 9.7 µM | IC50 [15]: 11.1 µM | IC50 [8]: 14.9 µM

O=C(O)c1cn(C2CC2)c2cc(N3CCNCC3)c(F)cc2c1=O [CIPROFLOXACIN]
IC50 [3]: 45.9 µM | IC50 [4]: 119 µM | IC50 [5]: 10.1 µM | IC50 [6]: 14.1 µM | IC50 [9]: > 40 µM | selectivity ratio [10]: > 0.8 | selectivity ratio at 48 h [11]: > 0.3 | IC50 [12]: 51.6 µM | IC50 [16]: 74.8 µM | IC50 [13]: 41.3 µM | IC50 [7]: 45.5 µM | IC50 [14]: 74.3 µM | IC50 [15]: 45.6 µM | IC50 [8]: 80.8 µM

CCN(CC)CCCC(C)Nc1ccnc2cc(Cl)ccc12 (stereo unspecified) [CHLOROQUINE]
IC50 [9]: 3.46 µM

COc1c(N2C[C@@H]3CCCN[C@@H]3C2)c(F)cc2c(=O)c(C(=O)O)cn(C3CC3)c12 [MOXIFLOXACIN]
IC50 [1]: ≥ 10 µM | IC50 [2]: ≥ 10 µM
